Experimental data published in patent US20200247897A1, “THERAPEUTIC ANTIBODIES BASED ON MUTATED IGG HEXAMERS” (GENMAB B.V., priority 2017, published 2020).
Like-named read-outs stand apart in the source and are kept apart here.

Experiments:
[1] = tested on: HCT 116; test: Drug combination screen (ATPlite, Synergy Score), HCT 116
[2] = tested on: SNU-C2B; test: Drug combination screen (ATPlite, Synergy Score), SNU-C2B
[3] = tested on: LS-411N; test: Drug combination screen (ATPlite, Synergy Score), LS-411N; type: cell-based, human
[4] = tested on: DLD-1; test: Drug combination screen (ATPlite, Synergy Score), DLD-1
[5] = tested on: SW480; test: Drug combination screen (ATPlite, Synergy Score), SW480; type: cell-based, human
[6] = compound in combination with IgG1-hDR5-01-G56T-E430G + IgG1-hDR5-05-E430G, HCT 116, 120 hour ATPlite, 6x6 matrix
[7] = compound in combination with IgG1-hDR5-01-G56T-E430G + IgG1-hDR5-05-E430G, SNU-C2B, 72 hour ATPlite, 6x6 matrix
[8] = compound in combination with IgG1-hDR5-01-G56T-E430G + IgG1-hDR5-05-E430G, LS-411N, 72 hour ATPlite, 6x6 matrix
[9] = compound in combination with IgG1-hDR5-01-G56T-E430G + IgG1-hDR5-05-E430G, DLD-1, 120 hour ATPlite, 6x6 matrix
[10] = compound in combination with IgG1-hDR5-01-G56T-E430G + IgG1-hDR5-05-E430G, SW480, 72 hour ATPlite, 6x6 matrix

| Structure (SMILES) | Synergy Score HCT-116 [1, 6] | Synergy Score SNU-C2B [2, 7] | Synergy Score LS-411N [3, 8] | Synergy Score DLD-1 [4, 9] | Synergy Score SW480 [5, 10] | Synergy Score HCT-116 [1] | Synergy Score SNU-C2B [2] | Synergy Score LS-411N [3] | Synergy Score DLD-1 [4] | Synergy Score SW480 [5] |
| --- | --- | --- | --- | --- | --- | --- | --- | --- | --- | --- |
| CO[C@H]1C[C@@H]2CC[C@@H](C)[C@@](O)(O2)C(=O)C(=O)N2CCCC[C@H]2C(=O)O[C@H]([C@H](C)C[C@@H]2CC[C@@H](OC(=O)C(C)(CO)CO)[C@H](OC)C2)CC(=O)[C@H](C)/C=C(\C)[C@@H](O)[C@@H](OC)C(=O)[C@H](C)C[C@H](C)/C=C/C=C/C=C/1C [Temsirolimus] | 0.6 | 4.5 | 0.6 | 0.7 | 1.6 | – | – | – | – | – |
| C=CCc1cccc(/C=N/NC(=O)CN2CCN(Cc3ccccc3)CC2)c1O [PAC 1] | 4.2 | 6 | 2.9 | 10.6 | 3.9 | – | – | – | – | – |
| Cn1cc(C2=C(c3cn(C4CCN(Cc5ccccn5)CC4)c4ccccc34)C(=O)NC2=O)c2ccccc21 [Enzastaurin] | 0.6 | 0.5 | 5.6 | 0.9 | 6.3 | – | – | – | – | – |
| CC1=C(C(=O)Nc2cc3cn[nH]c3cc2F)C(c2ccc(C(F)(F)F)cc2)CC(=O)N1 (stereo not drawn) [Compound G5K429286A] | 2.6 | 5.3 | 9.8 | 4.9 | 5.3 | – | – | – | – | – |
| COc1cccc2c1C(=O)c1c(O)c3c(c(O)c1C2=O)C[C@@](O)(C(=O)CO)C[C@@H]3O[C@H]1C[C@H](N)[C@H](O)[C@H](C)O1 [Doxorubicin] | 4.6 | 18 | 9.4 | 16.2 | 20.5 | – | – | – | – | – |
| C[C@H](Nc1ncnc2nc[nH]c12)c1cc2cccc(Cl)c2c(=O)n1-c1ccccc1 [IPI-145] | 0 | 1 | 0.2 | 0 | 0.1 | – | – | – | – | – |
| CCc1c2c(nc3ccc(OC(=O)N4CCC(N5CCCCC5)CC4)cc13)-c1cc3c(c(=O)n1C2)COC(=O)[C@]3(O)CC [irinotecan, reference compound] | 4.4 | 13.4 | 6.8 | 15 | 24.7 | – | – | – | – | – |
| CN(C)CCCn1cc(C2=C(c3c[nH]c4ccccc34)C(=O)NC2=O)c2ccccc21 [GF 109203X] | – | – | – | – | – | 3 | 1.6 | 5.3 | 4.3 | 6.2 |
| C[C@H]1C[C@@H]2[C@H]([C@@H](O)C[C@@]3(C)[C@H]2CC[C@]3(O)C(=O)CO)[C@@]2(C)C=CC(=O)C=C12 [Methylprednisolone] | 0 | 0.6 | 0 | 0 | 0 | – | – | – | – | – |
| CS(=O)(=O)c1ccc(C(=O)Nc2ccc(Cl)c(-c3ccccn3)c2)c(Cl)c1 [GDC-0449] | 0 | 0.3 | 0.2 | 0.1 | 0.1 | – | – | – | – | – |
| C[C@@H]1C[C@H]2[C@@H]3CCC4=CC(=O)C=C[C@]4(C)[C@@]3(F)[C@@H](O)C[C@]2(C)[C@@]1(O)C(=O)CO [Dexamethasone] | 0 | 0.8 | 0.4 | 0.1 | 0 | – | – | – | – | – |
| CC(C)(C)c1nc(-c2cccc(NS(=O)(=O)c3c(F)cccc3F)c2F)c(-c2ccnc(N)n2)s1 [Dabrafenib] | 0.7 | 0.5 | 0.5 | 2.2 | 3.1 | – | – | – | – | – |
